Experimental data as given in patent US20240277846A1, “MAGNETIC BIOMOLECULE-METAL ION SELF-ASSEMBLED COMPLEX FOR TREATMENT” (priority 2023, published 2024).
Where a name gives a salt, the structure may show the parent alone.

Columns and labels:
macrophages = assay: Macrophage polarization (immunofluorescence Arg-1/iNOS, flow cytometry); assay type: cell-based; details: immunofluorescence staining
Description: FIG. 15 to FIG. 17 show experiments according to each of the treatment conditions in cells before experimenting in rats according to Experimental Example 2 below. As shown in a following table 6, the conditions were divided into the control group: PBS only based treatment, Fe-ATP based treatment, ATP only based treatment, FeCl2 based treatment, and Fe3O4 based treatment. FIG. 15 is the result of identifying disassembling of the Fe-ATP self-assembly. Referring to FIG. 15, under each treatment condition, an experiment result was identified via immunofluorescence staining of […] (M2 polarization marker), iNOS (M1 polarization marker), and Dapi. […] This was identified through flow cytometry.

P2X7 = molecular target: T1, P2X7 (Homo sapiens, UniProt Q99572); assay: Western blotting of macrophage signaling, P2X7; assay type: cell-based; details: low concentration
T1 construct: endogenous in cells
T1 sequence (Q99572 1-595): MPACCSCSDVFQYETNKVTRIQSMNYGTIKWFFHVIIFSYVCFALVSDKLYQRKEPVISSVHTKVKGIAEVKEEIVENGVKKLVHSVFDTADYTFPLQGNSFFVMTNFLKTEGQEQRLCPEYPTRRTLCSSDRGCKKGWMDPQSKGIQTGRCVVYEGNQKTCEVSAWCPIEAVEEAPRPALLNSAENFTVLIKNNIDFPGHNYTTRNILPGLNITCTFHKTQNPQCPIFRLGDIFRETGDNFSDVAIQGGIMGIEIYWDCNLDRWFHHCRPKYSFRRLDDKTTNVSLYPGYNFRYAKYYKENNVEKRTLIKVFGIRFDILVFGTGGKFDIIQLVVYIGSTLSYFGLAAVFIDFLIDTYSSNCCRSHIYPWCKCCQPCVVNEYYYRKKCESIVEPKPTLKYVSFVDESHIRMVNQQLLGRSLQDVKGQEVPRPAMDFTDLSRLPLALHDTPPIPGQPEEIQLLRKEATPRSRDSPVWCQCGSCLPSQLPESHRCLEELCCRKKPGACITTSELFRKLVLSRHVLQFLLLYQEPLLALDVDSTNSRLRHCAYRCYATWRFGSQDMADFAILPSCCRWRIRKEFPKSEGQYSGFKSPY
Description: (§1) It was identified that the Fe-ATP self-assembly was disassembled into the ATP and the iron ion such that the ATP was released therefrom, and this enabled AIP-mediated anti-inflammatory polarization of macrophages.

P2Y1 = molecular target: T2, P2Y1 (Homo sapiens, UniProt P47900); assay: Western blotting of macrophage signaling, P2Y1; assay type: cell-based; details: low concentration
T2 construct: endogenous in cells
Description: as §1

stem cells = assay: Osteogenic differentiation of stem cells (RUNX2, osteocalcin immunofluorescence, ALP staining); assay type: cell-based
Description: FIG. 27 and FIG. 28 show experiments according to each of treatment conditions in cells before experimenting in rabbits according to Experimental Example 3 below. As shown in a following table 7, the treatment conditions include treatment with only PBS as a control group, treatment with Fe-AMP, treatment with AMP only, treatment with a combination of adenosine and PO4 (Adenosine+PO4), treatment with Adenosine, treatment with PO4, treatment with FeCl2, and treatment with an osteogenic induction medium. In this regard, FeCl2 was disassembled into Fe^2+ and Cl—. Thus, the treatment with FeCl2 was added to compare the released Fe^2+ therefrom with the Fe^2+ released from the […]. […] The adenosine obtained via decomposition of the AMP released from the Fe-AMP self-assembly was similar to osteogenic differentiation medium, and was analyzed via actin and dapi-positive nuclei and ALP chemical staining along with immunofluorescence staining of RUNX2 and osteocalcin. […] In other words, the Fe-AMP self-assembly induces osteogenic differentiation of stem cells through adenosine signaling. This was identified via immunofluorescence staining of RUNX2 and osteocalcin along with actin, dapi-positive nuclei, and ALP chemical staining.

ROS = assay: IVIS L-012 ROS signal analysis in vivo; parameters: species or system mouse; details: 2 hours after the injection
Experimental: Luminescent probes L-012 (Wako Chemical, Korea) were dissolved in […] a thus prepared solution was maintained in a fresh state just before the experiment. In a 50 […] injection volume, 25 mg/kg thereof was administered subcutaneously to a back of a mouse. Chemiluminescence (CL) release assessment was started immediately after the injection of L-012 using indiGOTM software and IVIS (In vivo Imaging System, NightOWL II LB 983, BERTHOLD Technologies GmbH, Germany). To collect sufficient CL release data, the mouse was exposed thereto for 20 seconds each time. CL released from the mouse skin was recorded and visualized in real time, and then the CL released in an area of interest was quantified as total flux (photons/second).

hMSCs = assay: Western blotting of osteogenic differentiation via adenosine-A2B receptor signaling; assay type: cell-based

T2 sequence (P47900 whole entry, species assumed): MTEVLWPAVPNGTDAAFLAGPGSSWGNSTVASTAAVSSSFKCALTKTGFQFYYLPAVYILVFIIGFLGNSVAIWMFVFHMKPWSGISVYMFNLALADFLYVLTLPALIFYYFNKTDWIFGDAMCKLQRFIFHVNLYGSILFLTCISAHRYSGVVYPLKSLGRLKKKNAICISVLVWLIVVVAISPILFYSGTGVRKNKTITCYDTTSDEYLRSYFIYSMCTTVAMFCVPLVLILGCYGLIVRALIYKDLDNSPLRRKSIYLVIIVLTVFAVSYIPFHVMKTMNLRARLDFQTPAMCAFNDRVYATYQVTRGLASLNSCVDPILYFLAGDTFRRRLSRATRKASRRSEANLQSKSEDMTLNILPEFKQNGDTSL

## Nc1ncnc2c1ncn2[C@@H]1O[C@H](COP(=O)([O-])OP(=O)([O-])OP(=O)(O)O)[C@@H](O)[C@H]1O.[Na+].[Na+] [ATP, Adenosine 5′-triphosphate disodium salt]
macrophages
  Arg-1 (M2 polarization marker) expression: strongly expressed
P2X7
  P2X7 signaling: inhibited P2X7 signaling
P2Y1
  P2Y1 signaling: stimulated P2Y1 signaling

## Nc1ncnc2c1ncn2[C@@H]1O[C@H](CO)[C@@H](O)[C@H]1O [Adenosine]
Stem cells
  Osteogenic differentiation of stem cells: induced the osteogenic differentiation to a similar level thereto

## COc1cccc2c1C(=O)c1c(O)c3c(c(O)c1C2=O)C[C@@](O)(C(=O)CO)C[C@@H]3O[C@H]1C[C@H](N)[C@H](O)[C@H](C)O1 [Doxorubicin (DOX), Doxorubicin hydrochloride]
ROS
  ROS production in vivo (L-012 signal): has little effect on the ROS release in a short period of time

## [Cl][Fe][Cl] [FeCl2, Iron(II) chloride]
macrophages
  Arg-1 (M2 polarization marker) expression: not expressed

## CCCn1c(=O)[nH]c2nc(-c3ccc(S(=O)(=O)N4CCN(c5ccc(Cl)cc5)CC4)cc3)[nH]c2c1=O [PSB 603]
hMSCs
  Osteogenic differentiation of hMSCs: osteogenic differentiation of hMSCs was inhibited
